According to PubChem BioAssay (NCI):
Several values for one entry are separate records, joined by “and”; a condition that tells them apart may be missing. Identical values can stand only once.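 Grown in 96-well plates, cells were treated for 48 hours with each compound at five concentrations. Insufficient inhibition: endpoint recorded as highest concentration tested. Abbreviation: GI50, concentration required for 50% inhibition of growth. The concentration for full growth arrest is given as TGI.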

Experiments:
Assay in all cases: NCI tumour cell line growth inhibition, 48 h
[1] = tested on: MDA-N
[2] = tested on: DLD-1 colon
[3] = tested on: M19-MEL melanoma
[4] = tested on: XF 498 CNS
[5] = tested on: KM20L2 colon
[6] = tested on: SNB-78 CNS
[7] = tested on: HOP-18 NSCLC
[8] = tested on: RXF-631 renal
[9] = tested on: DMS 273 small cell lung
[10] = tested on: P388/ADR leukemia
[11] = tested on: P388 leukemia

SMILES	TGI [1] [µM]	TGI [2] [µM]	TGI [3]	TGI [4]	TGI [5]	TGI [6]	TGI [7]	TGI [9]	further results
CCc1nc(N)nc(N)c1-c1ccc2nnn(O)c2c1	> 100								
Nc1nc(N)c(-c2ccccc2)c(C(=O)Nc2ccccc2)n1		> 100	> 100 µM	> 100 µM	> 100 µM	> 100 µM	> 100 µM		
C[C@@H]1CCC([C@@H](C)[C@H]2CC[C@H]3[C@@H]4CC[C@H]5C[C@@H](O)CC[C@]5(C)[C@H]4CC[C@]23C)=NC1	> 100								
O=[N+]([O-])c1ccc(C2=Nn3c(nnc3-c3ccc(Cl)cc3)SC2)o1	16.4	4.32	7.95 µM	28.7 µM	16.1 µM	38.6 µM	33.6 µM	31.1 µM	TGI [8]: 27.9 µM
CC1(C)CC[C@]2(C(=O)O)CC[C@]3(C)C(=CC[C@@H]4[C@@]5(C)C[C@H](O)[C@H](O)[C@@](C)(C(=O)O)[C@@H]5CC[C@]43C)[C@@H]2C1	> 100								
CCC(O)C1Cc2c(C)cc3c(c2O1)C(=O)c1ccccc1C3=O (centres undefined)		> 100	> 100 µM	58.9 µM	> 100 µM	90.6 µM	73.6 µM	> 100 µM	
CCCCNC(=O)C1C(=O)N(CCCC)C(=O)/C1=N\N (centres undefined)			> 100 µM	> 100 µM	> 100 µM	> 100 µM	> 100 µM	> 100 µM	TGI [8]: > 100 µM
NC(N)=NC(N)=Nc1cnccn1	> 100								
CC1=CCCC2C1(C)CCC(C)C2(C)Cc1cc(O)ccc1O (centres undefined)	25.3	22.2	20.8 µM	21.7 µM	27.9 µM	11 µM	36.2 µM	20.2 µM	TGI [10]: 13 µM; TGI [11]: 4.94 µM
COC(=O)C1=COC(C)C2CN3CCc4c([nH]c5cc(OC)c(OC)cc45)C3CC12 (centres undefined)	> 100								
COC(=O)c1ccccc1N1C(=O)Cc2ccccc2C1=O			> 100 µM		> 100 µM	> 100 µM		> 100 µM	
Cc1ccc(NC(=O)c2cc3ccccc3c(N=Nc3cc(S(=O)(=O)O)ccc3O)c2O)c(C)c1	> 100								
NC1CCCCC1N.O=[Se]([O-])[O-].[Pt+4] (centres undefined)		> 83.8	15.5 µM		26.9 µM	> 100 µM	> 100 µM		GI50 [2]: 1.81 µM; GI50 [3]: 0.412 µM; GI50 [5]: 0.233 µM; GI50 [6]: 69.8 µM; GI50 [7]: 27 µM
CCOC(=O)NC/C=C/COC1CCCCO1 (centres undefined)		> 100	> 100 µM		> 100 µM	> 100 µM	> 100 µM	> 100 µM	
Cc1ccc(-c2cc3c4c(nc5ccccc53)C(=O)c3cccnc3-c4n2)cc1	10.3								GI50 [1]: 3.27 µM
CC(N)(/C=C/c1ccccc1)C(=O)O (centres undefined)	> 100								

SMILES	TGI [1] [µM]	TGI [2] [µM]	TGI [3]	TGI [4]	TGI [5]	TGI [6]	TGI [7]	TGI [9]	further results
N#CCCCCCOCCOCCOCCOCCOCCCCCC#N		> 100	> 100 µM		> 100 µM		> 100 µM	> 100 µM	TGI [8]: > 100 µM
N=N/C(=C\c1c(O)[nH]c2ccccc12)c1ccccc1	13.7								
c1ccc2cc(NCNc3ccc4ccccc4c3)ccc2c1	18.6								
CCCNCC(=O)O[C@]1(CC)C(=O)OCc2c1cc1n(c2=O)Cc2cc3ccccc3nc2-1		> 100	1.96 µM	0.652 µM	19.2 µM		> 100 µM	0.114 µM	
COC(=O)C1=CO[C@@H](OC2OC(CO)C(O)C(O)C2O)[C@H]2[C@@H](C)[C@@H](O)[C@@H](O)[C@@H]12 (some centres undefined)	> 100								
O=C(NCc1cccnc1)C1COc2cc(-c3cc(=O)c4ccccc4o3)ccc2O1 (centres undefined)		> 100	> 100 µM	72.1 µM	> 100 µM	> 100 µM	> 100 µM		TGI [8]: > 100 µM
O=C(OC1CCC2OOC1O2)c1ccc([N+](=O)[O-])cc1 (centres undefined)			> 100 µM		> 100 µM	> 100 µM		> 100 µM	
O=C1NC2C(=CC(O)C(O)C2O)c2cc3c(cc21)OCO3 (centres undefined)	1.22	2.11	1.72 µM and 1.53 µM	0.93 µM and 1.81 µM and 0.644 µM	5.54 µM and 5.32 µM	4.94 µM and 11.2 µM	4.33 µM and 13.1 µM	1.99 µM and 2.07 µM	GI50 [2]: 0.325 µM and 0.217 µM; TGI [10]: 0.714 µM; GI50 [3]: 0.353 µM and 0.282 µM; GI50 [8]: 0.23 µM; TGI [8]: 3.13 µM; GI50 [4]: 0.207 µM and 0.416 µM; TGI [11]: 0.461 µM; GI50 [5]: 0.34 µM and 0.261 µM; GI50 [6]: 0.456 µM and 0.426 µM; GI50 [9]: 0.604 µM and 0.301 µM; GI50 [7]: 0.545 µM and 0.392 µM
Nc1nc(Cl)cc(NCC(O)CO)n1 (centres undefined)		> 100	> 100 µM	> 100 µM	> 100 µM	> 100 µM	> 100 µM	> 100 µM	
CCOC(=O)C(N=C(c1ccccc1)c1ccccc1)N(C(=O)OC(C)(C)C)C(=O)OC(C)(C)C (centres undefined)			> 100 µM		> 100 µM	> 100 µM			
COc1cc2c(cc1OC)CC(=O)Nc1cc(OC)c(OC)cc1CC2		> 100	> 100 µM	> 100 µM	> 100 µM	> 100 µM	> 100 µM	> 100 µM	TGI [8]: > 100 µM
COc1ccc(NC(=O)CC/C(CC(=O)c2ccco2)=N/NC(N)=S)cc1		> 100	> 100 µM	> 100 µM	> 100 µM	> 100 µM	> 100 µM	> 100 µM	TGI [8]: > 100 µM
CC[C@@]1(O)C(=O)OCc2c1cc1n(c2=O)Cc2cc3cccc([N+](=O)[O-])c3nc2-1		> 100		34.6 µM	41.7 µM	> 100 µM	> 100 µM	1.67 µM	GI50 [2]: 24.6 µM; GI50 [4]: 3.12 µM; GI50 [5]: 3.24 µM; GI50 [6]: 34.3 µM; GI50 [9]: 0.175 µM; GI50 [7]: 1.85 µM
COc1cc(-c2oc3c(OC)cc(OC)c(O)c3c(=O)c2OC)cc(OC)c1OC	> 100								
CC1(Br)CC2OC3(Br)C=CC(C)(O)C2(CC1=O)C3(C)C (centres undefined)		> 100		> 100 µM	> 100 µM	> 100 µM	> 100 µM	> 100 µM	
CONC(C)=O	> 100								
